Assay results as given in patent US20050124618A1, “Methods of modulating angiogenesis and cancer cell proliferation” (priority 2003, published 2005).
Entries after “also recorded” stand apart in the source; their conditions may differ.

Assays:
20-HETE [1] = test: 20-HETE formation in electrically stimulated skeletal (TA) muscle of rats; assay type: in vivo, rat; conditions: 7 days of electrical stimulation; chronic treatment
Experimental: (§1) Experimental protocols and tissue preparation: After a 24-h recovery period, the implanted stimulator was activated by momentary closure of the magnetic reed switch using a small hand-held magnet. […] Contractions of the extensor digitorum longus (EDL) and tibialis anterior (TA) muscles were automatically initiated at 9 AM each day and sustained for 8 h/day over a consecutive 7-day period. At the end of the stimulation period, the animals were euthanized by an overdose of pentobarbital sodium (100 mg/kg ip), and the EDL and TA muscles were harvested for analysis as previously described (Greene A S et al., Hypertension 15: 779-783, 1990; and Parmentier J H et al., Hypertension 37: 623-629, 2001).
The rats were divided in four groups. […] This dose was chosen based on our previous results (Kehl F et al., Am J Physiol Heart Circ Physiol 282: H1556-H1565, 2002).
To determine the contribution of VEGF to the angiogenesis induced by electrical stimulation, six rats in group 3 were treated with 3 mg/kg ip injections of a monoclonal VEGF-neutralizing antibody (Texas Biotechnology; Houston, Tex.) during the period of electrical stimulation. The protocol for administration of VEGF-neutralizing antibody was modified from Zheng W et al. (Circ Res 85: 192-198, 1999), and this dose was based on our previous results (Amaral S L et al., Microcirculation 8: 57-67, 2001). After the stimulation period was started, the rats received intraperitoneal injections on days 3, 5, and 7 (0.6 mg/100 g).
Muscle preparations for measurement of 20-HETE: The 100-200 mg of frozen TA muscle were homogenized in a solution containing 1 ml of acidified water and 50 μl of an internal standard, WIT-002, which was synthesized and kindly provided by Taisho Pharmaceutical. Ethyl acetate (3 ml, Fisher Scientific; Pittsburgh, Pa.) was added to the mixture and gently vortexed. The homogenized tissues were then centrifuged at 3,000 revolutions/min for 2 min. With the use of a glass Pasteur pipet, the top layer was removed and transferred to a sterile glass vial, and the samples were dried under nitrogen and stored at −80° C.
Labeling of samples and fluorescent detection of 20-HETE: Detection of 20-HETE was performed as previously described (Ma Y H et al., Am J Physiol Regul Integr Comp Physiol 267: R579-R589, 1994). Samples, which were extracted and dried under argon, were resuspended in 20 μl of acetonitrile containing 36.4 mM 2-(2,3-napthalimino)ethyl trifluoromethanesulfonate, and N,N-diisopropylethylamine (10 μl) was added as a catalyst. The sample was reacted for 30 min at room temperature, dried under argon, resuspended in 1 ml of 40% acetonitrile-water, and applied to a Sep-Pak Vac column. The column was washed with 6 ml of 50% acetonitrile-water solution to remove unreacted dye, eluted with 500 μl of ethyl acetate, dried under argon, and resuspended in 100 μl of the HPLC mobile phase [methanol-water-acetic acid, 82:18:0.1 (vol/vol)]. A 25-μl aliquot of the derivatized sample was separated on a 4.6×250-mm Symmetry C18 reverse-phase HPLC column (Waters) isocratically at a rate of 1.3 ml/min using methanol-water-acetic acid (82:18:0.1 (vol/vol)) as the mobile phase. Fluorescence intensity monitored using an in-line fluorescence detector (model number L-7480, Hitachi; Naperville, Ill.) at medium gain sensitivity. The amount of 20-HETE in the sample was determined by comparing the area of the 20-HETE peak with that of the internal standard (WIT-002).

[2] = test system: extensor digitorum longus (EDL) and tibialis anterior (TA) muscles; test: Vessel density of EDL and TA muscles after 7 days of electrical stimulation; assay type: in vivo, rat
Experimental: as §1
Tissue harvest and morphological analysis of vessel density: The stimulated and contralateral muscles were removed, weighed, and rinsed in physiological salt solution. A 300-mg sample was taken from the rostral portion of the TA muscle and frozen in liquid nitrogen for Western blot (100 mg) and HPLC (200 mg) analysis for measurement of VEGF protein expression and 20-HETE formation, respectively. The remaining TA and EDL muscles were lightly fixed in a 0.25% formalin solution overnight. The muscles were sectioned via a manual microtome to a thickness of about 100 μm by securing the tendons and slicing parallel to the longitudinal orientation of the muscle fibers. From every animal, two slices of each EDL muscle and three slices of each TA muscle were made. The slices were than immersed for 2 h in a solution of 25 μg/ml rhodamine-labeled Griffonia simplicifolia I (GS-I) lectin (Sigma; St. Louis, Mo. (Greene A S et al., Hypertension 15: 779-783, 1990)). Immediately after this 2-h exposure to GS-I lectin, the muscles were rinsed in physiological solution. The rinsing procedure was repeated after 15 and 30 min, and the muscles were rinsed in physiological saline solution for 12 h (overnight, at 4° C.). On the next day, the slices were mounted on microscope slides with a water-soluble mounting medium consisting of toluene and acrylic resin (SP ACCU-MOUNT 280, Baxter Scientific).
The labeled sections were visualized using a video fluorescent microscope system (Olympus ULWD CD Plan, ×20 objective, 1.6 cm working distance and 0.4 numerical aperture) with epi-illumination, as previously described (Parmentier J H et al., Hypertension 37: 623-629, 2001). In the present study, 10-15 and 20-25 representative fields were selected for study from each EDL and TA muscle slice, respectively. Each field was converted to a digitized image (DT2801 Data Translation; Marlboro, Mass.) and stored as an 8-bit/pixel image file with a resolution of 512×512 pixels. Morphometric analysis of the scanned histochemical sections was done as previously described (Parmentier J H et al., Hypertension 37: 623-629, 2001).
Data analysis and statistics: For each muscle, the vessel counts of all the selected fields (10-15 scans×2 slices for each EDL muscle; 20-25 scans×3 slices for each TA muscle) were averaged to a single vessel density. Vessel density was expressed in terms of the mean number of vessel-grid intersections per microscope field (0.224 mm^2). For each experimental group, the measured vessel density and 20-HETE formation of the stimulated muscle was compared with its unstimulated counterpart as well as with age-matched controls. All values are presented as means±SE. The significance of differences in values measured in the same animal was evaluated using a two-factor ANOVA (drug×stimulation) with repeated measures on one factor (stimulation). Significant differences were further investigated using a post hoc test (Tukey's).

VEGF = test: Western blot of VEGF protein expression in TA muscle; assay type: in vivo, rat
Experimental: Western blot analysis to detect the presence of VEGF protein: The 100-mg TA muscle specimens were homogenized, and the protein was suspended in potassium buffer (10 mM). Five micrograms of protein (as determined by a protein assay kit, Bio-Rad; Hercules, Calif.) from the TA and a tumor cell line known to express VEGF at high levels (C6, American Type Culture Collection, 107-CCL) were separated on a 12% denaturing polyacrylamide gel. The gels were transferred to a nitrocellulose membrane, which was blocked overnight in 5% nonfat dry milk diluted in Tris-buffered saline (50 mM Tris and 750 mM NaCl, pH 8) with 0.08% Tween 20 (Bio-Rad). The blots were then incubated with a […] antibody to a peptide derived from the human VEGF sequence (1:1,000 dilution, clone G143-850, Pharmingen) for 2 h at room temperature. Washed blots were then incubated with goat anti-mouse secondary antibody at a dilution of 1:1,000 for 1 h at room temperature and then subjected to a SuperSignal West Dura chemiluminescence substrate (Pierce; Rockford, Ill.) detection system. Membranes were exposed to X-ray film (Fuji Medical; Stamford, Conn.) for 15 to 30 s and developed using a Kodak M35 X-Omat processor. For the quantitative VEGF analysis, film was always exposed for a period of time that ensured that all signals were within the linear range of the detection of the film. The VEGF band intensity was quantified using a morphometry imaging system (Metamorph, Universal Imaging; West Chester, Pa.), and values are expressed as a percentage of the C6 tumor cell standard.

20-HETE [3] = conditions: cited from earlier work
[4] = chronic treatment, 7 days electrical stimulation

Nn1nnc2ccccc21 [ABT, 1-aminobenzotriazole]
effect on the increase of 20-HETE formation induced by electrical stimulation (20-HETE [1]): blocked
effect on the increase in vessel density (angiogenesis) induced by electrical stimulation ([2]; 7 days, HET0016 2 mg kg−1 day−1, ABT 50 mg kg−1 day−1): blocked; also recorded: attenuated
vessel density, EDL, unstimulated side ([2]; chronic treatment, 7 days): 111±7.4 number of vessel intersections
vessel density, TA, unstimulated side ([2]; chronic treatment, 7 days): 99.7±4.72 number of vessel intersections
vessel density, EDL, stimulated side [2, 4]: 121±4.35 number of vessel intersections
vessel density, TA, stimulated side [2, 4]: 119.5±4.51 number of vessel intersections
effect on increases in VEGF protein expression induced by electrical stimulation (VEGF; 7 days stimulation): did not block
effect on baseline VEGF expression (VEGF; 7 days treatment): Neither HET0016 nor ABT had any effect
ability to reduce 20-HETE levels in vivo (20-HETE [3]): reduce 20-HETE levels in vivo
